Activity calls are given as the source filed them. No cut-off for these calls is given here.
Columns and labels:
Cannabinoid receptor 1 [1] = target: T1, Cannabinoid receptor 1 (Homo sapiens, UniProt P21554); assay: Inverse agonist activity at human recombinant cannabinoid CB1 receptor expressed in HEK cells transfected with CNG assessed as increase in cAMP level measured up to 1 hr by ACTOne membrane potential dye based assay; type: functional, cell-based; settings: time hrs <=1
Homo sapiens = organism: Homo sapiens; assay: Selectivity ratio of Ki for displacement of [3H]-CP55940 from human recombinant cannabinoid CB1 receptor expressed in HEK cell membranes to displacement of [3H]-CP55940 from human recombinant cannabinoid CB2 receptor expressed in HEK cell membranes
Cannabinoid receptor 2 [2] = target: T2, Cannabinoid receptor 2 (Homo sapiens, UniProt P34972); assay: Inverse agonist activity at human recombinant cannabinoid CB2 receptor expressed in HEK cells transfected with CNG assessed as increase in cAMP level measured up to 1 hr by ACTOne membrane potential dye based assay relative to control; type: functional, cell-based; settings: time hrs <=1
T2 sequence (P34972 whole entry): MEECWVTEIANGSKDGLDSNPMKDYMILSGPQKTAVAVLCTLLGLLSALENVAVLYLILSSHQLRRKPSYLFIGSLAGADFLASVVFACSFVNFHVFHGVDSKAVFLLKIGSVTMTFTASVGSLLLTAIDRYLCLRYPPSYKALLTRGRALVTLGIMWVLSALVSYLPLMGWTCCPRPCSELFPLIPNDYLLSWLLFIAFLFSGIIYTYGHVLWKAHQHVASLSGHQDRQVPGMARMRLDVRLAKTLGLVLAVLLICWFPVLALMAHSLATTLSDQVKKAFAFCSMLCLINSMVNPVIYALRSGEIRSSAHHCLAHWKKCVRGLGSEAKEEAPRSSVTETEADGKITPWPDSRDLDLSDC

Cannabinoid receptor 1 [3] = target: T1, Cannabinoid receptor 1; assay: Displacement of [3H]-CP55940 from human recombinant cannabinoid CB1 receptor expressed in HEK cell membranes incubated for 1.5 hrs by liquid scintillation counting method; set-up: species or system Cell membrane
Cannabinoid receptor 2 [4] = target: T2, Cannabinoid receptor 2; assay: Displacement of [3H]-CP55940 from human recombinant cannabinoid CB2 receptor expressed in HEK cell membranes incubated for 1.5 hrs by liquid scintillation counting method; set-up: species or system Cell membrane
Cannabinoid receptor 1 [5] = target: T1, Cannabinoid receptor 1; assay: Inverse agonist activity at human recombinant cannabinoid CB1 receptor expressed in HEK cells transfected with CNG assessed as increase in cAMP level measured up to 1 hr by ACTOne membrane potential dye based assay relative to control; type: functional, cell-based; settings: time hrs <=1
Cannabinoid receptor 2 [6] = target: T2, Cannabinoid receptor 2; assay: Inverse agonist activity at human recombinant cannabinoid CB2 receptor expressed in HEK cells transfected with CNG assessed as increase in cAMP level measured up to 1 hr by ACTOne membrane potential dye based assay; type: functional, cell-based
Cannabinoid receptor 1 [7] = target: T1, Cannabinoid receptor 1; assay: Inverse agonist activity at cannabinoid CB1 receptor in human U2OS cells assessed as induction of beta-arrestin recruitment using CCF4/AM as substrate preincubated for 5 hrs followed by substrate addition and measured after 2 hrs by Tango assay; type: cell-based; settings: time 7.0 hrs
Cannabinoid receptor 2 [8] = target: T2, Cannabinoid receptor 2; assay: Inverse agonist activity at cannabinoid CB2 receptor in human U2OS cells assessed as induction of beta-arrestin recruitment using CCF4/AM as substrate preincubated for 5 hrs followed by substrate addition and measured after 2 hrs by Tango assay; type: cell-based
Cannabinoid receptor 2 [9] = target: T2, Cannabinoid receptor 2; assay: Inverse agonist activity at cannabinoid CB2 receptor in human U2OS cells assessed as emission ratio using CCF4/AM as substrate preincubated for 5 hrs followed by substrate addition and measured after 2 hrs by Tango assay; type: cell-based; settings: time 7.0 hrs; note: test concentration or dose not given here
Cannabinoid receptor 1 [10] = target: T1, Cannabinoid receptor 1; assay: Inverse agonist activity at cannabinoid CB1 receptor in human U2OS cells assessed as emission ratio using CCF4/AM as substrate preincubated for 5 hrs followed by substrate addition and measured after 2 hrs by Tango assay; type: cell-based; settings: time 7.0 hrs

T1 sequence (P21554 whole entry): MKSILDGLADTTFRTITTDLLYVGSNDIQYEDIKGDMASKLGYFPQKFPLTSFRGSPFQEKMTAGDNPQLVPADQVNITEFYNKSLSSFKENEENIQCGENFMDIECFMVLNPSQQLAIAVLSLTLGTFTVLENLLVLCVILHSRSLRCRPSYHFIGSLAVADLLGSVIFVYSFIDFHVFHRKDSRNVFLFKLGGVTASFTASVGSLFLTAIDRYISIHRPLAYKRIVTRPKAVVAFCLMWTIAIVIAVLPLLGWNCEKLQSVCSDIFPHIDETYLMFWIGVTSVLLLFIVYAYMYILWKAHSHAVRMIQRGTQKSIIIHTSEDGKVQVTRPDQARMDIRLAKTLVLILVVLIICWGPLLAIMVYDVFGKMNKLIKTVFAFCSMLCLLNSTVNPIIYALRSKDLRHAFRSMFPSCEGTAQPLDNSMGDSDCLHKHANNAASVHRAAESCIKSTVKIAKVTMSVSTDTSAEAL

SMILES: O=C(c1ccccc1)c1cc(O)c(-c2ccc3c(c2)OCCO3)c(O)c1
- pEC50 (Cannabinoid receptor 1 [1]): inactive
- Ratio Ki (Homo sapiens): > 2.11
- Emax (Cannabinoid receptor 2 [2]; filed as inverse agonist): 49%
- Ki (Cannabinoid receptor 1 [3]): > 10000 nM
- Ki (Cannabinoid receptor 2 [4]): 4740 nM
- Emax (Cannabinoid receptor 1 [5]): inactive
- EC50 (Cannabinoid receptor 2 [6]): 4900 nM

SMILES: Cc1ccc(Cn2nc(C(=O)N[C@@H]3C(C)(C)[C@@H]4CC[C@@]3(C)C4)cc2-c2ccc(Cl)c(C)c2)cc1
- pEC50 (Cannabinoid receptor 1 [7]): inactive

SMILES: O=C(c1ccccc1)c1cc(O)c(-c2cc(C(F)(F)F)cc(C(F)(F)F)c2)c(O)c1
- pEC50 (Cannabinoid receptor 1 [1]): inactive
- Ratio Ki (Homo sapiens): 8.86
- EC50 (Cannabinoid receptor 2 [8]): 1410 nM
- Emax (Cannabinoid receptor 2 [2]): 22.9%
- Ki (Cannabinoid receptor 1 [3]): 1900 nM
- Ratio (Cannabinoid receptor 2 [9]; filed as inverse agonist): 0.91
- Ki (Cannabinoid receptor 2 [4]): 215 nM
- Emax (Cannabinoid receptor 1 [5]): inactive
- Ratio (Cannabinoid receptor 1 [10]): inactive
- pEC50 (Cannabinoid receptor 1 [7]): inactive
- EC50 (Cannabinoid receptor 2 [6]): 372 nM

SMILES: O=C(c1cc(O)c(-c2cc(C(F)(F)F)cc(C(F)(F)F)c2)c(O)c1)c1cccs1
- pEC50 (Cannabinoid receptor 1 [1]): inactive
- Ratio Ki (Homo sapiens): 20
- EC50 (Cannabinoid receptor 2 [8]): 1290 nM
- Emax (Cannabinoid receptor 2 [2]; filed as inverse agonist): 49.7%
- Ki (Cannabinoid receptor 1 [3]): 3740 nM
- Ratio (Cannabinoid receptor 2 [9]; filed as inverse agonist): 0.94
- Ki (Cannabinoid receptor 2 [4]): 187 nM
- Emax (Cannabinoid receptor 1 [5]): inactive
- Ratio (Cannabinoid receptor 1 [10]): inactive
- pEC50 (Cannabinoid receptor 1 [7]): inactive
- EC50 (Cannabinoid receptor 2 [6]): 676 nM

SMILES: N#Cc1cc(-c2c(O)cc(C(=O)c3ccccc3)cc2O)ccc1F
- pEC50 (Cannabinoid receptor 1 [1]): inactive
- Ratio Ki (Homo sapiens): > 5.44
- pEC50 (Cannabinoid receptor 2 [8]; time 7.0 hrs): inactive
- Emax (Cannabinoid receptor 2 [2]; filed as inverse agonist): 52.3%
- Ki (Cannabinoid receptor 1 [3]): > 10000 nM
- Ratio (Cannabinoid receptor 2 [9]): inactive
- Ki (Cannabinoid receptor 2 [4]): 1840 nM
- Emax (Cannabinoid receptor 1 [5]): inactive
- Ratio (Cannabinoid receptor 1 [10]): inactive
- pEC50 (Cannabinoid receptor 1 [7]): inactive
- EC50 (Cannabinoid receptor 2 [6]): 2820 nM

SMILES: O=C(c1ccccc1)c1cc(O)c(-c2ccnc(F)c2)c(O)c1
- pEC50 (Cannabinoid receptor 1 [1]): inactive
- Emax (Cannabinoid receptor 2 [2]): inactive
- Ki (Cannabinoid receptor 1 [3]): > 10000 nM
- Ki (Cannabinoid receptor 2 [4]): > 10000 nM
- Emax (Cannabinoid receptor 1 [5]): inactive
- pEC50 (Cannabinoid receptor 2 [6]; time hrs <=1): inactive

SMILES: O=C(c1ccccc1)c1cc(O)c(-c2ccncc2)c(O)c1
- pEC50 (Cannabinoid receptor 1 [1]): inactive
- Emax (Cannabinoid receptor 2 [2]): inactive
- Ki (Cannabinoid receptor 1 [3]): > 10000 nM
- Ki (Cannabinoid receptor 2 [4]): > 10000 nM
- Emax (Cannabinoid receptor 1 [5]): inactive
- pEC50 (Cannabinoid receptor 2 [6]; time hrs <=1): inactive

SMILES: O=C(c1ccccc1)c1cc(O)c(-c2cc(Cl)ccc2Cl)c(O)c1
- pEC50 (Cannabinoid receptor 1 [1]): inactive
- Ratio Ki (Homo sapiens): > 42.9
- EC50 (Cannabinoid receptor 2 [8]): 6030 nM
- Emax (Cannabinoid receptor 2 [2]; filed as inverse agonist): 66.5%
- Ki (Cannabinoid receptor 1 [3]): > 10000 nM
- Ratio (Cannabinoid receptor 2 [9]; filed as inverse agonist): 1.03
- Ki (Cannabinoid receptor 2 [4]): 233 nM
- Emax (Cannabinoid receptor 1 [5]): inactive
- Ratio (Cannabinoid receptor 1 [10]): inactive
- pEC50 (Cannabinoid receptor 1 [7]): inactive
- EC50 (Cannabinoid receptor 2 [6]): 363 nM

SMILES: O=C(c1ccccc1)c1cc(O)c(-c2cccc(CO)c2)c(O)c1
- pEC50 (Cannabinoid receptor 1 [1]): inactive
- Ratio Ki (Homo sapiens): > 4
- Emax (Cannabinoid receptor 2 [2]): inactive
- Ki (Cannabinoid receptor 1 [3]): > 10000 nM
- Ki (Cannabinoid receptor 2 [4]): 2490 nM
- Emax (Cannabinoid receptor 1 [5]): inactive
- pEC50 (Cannabinoid receptor 2 [6]; time hrs <=1): inactive

SMILES: O=C(c1cc(O)c(-c2ccncc2)c(O)c1)c1cccs1
- pEC50 (Cannabinoid receptor 1 [1]): inactive
- Emax (Cannabinoid receptor 2 [2]): inactive
- Ki (Cannabinoid receptor 1 [3]): > 10000 nM
- Ki (Cannabinoid receptor 2 [4]): > 10000 nM
- Emax (Cannabinoid receptor 1 [5]): inactive
- pEC50 (Cannabinoid receptor 2 [6]; time hrs <=1): inactive

SMILES: Cc1cccc(-c2c(O)cc(C(=O)c3ccccc3)cc2O)c1
- pEC50 (Cannabinoid receptor 1 [1]): inactive
- Ratio Ki (Homo sapiens): 12.6
- EC50 (Cannabinoid receptor 2 [8]): > 10000 nM
- Emax (Cannabinoid receptor 2 [2]; filed as inverse agonist): 40.3%
- Ki (Cannabinoid receptor 1 [3]): 4010 nM
- Ratio (Cannabinoid receptor 2 [9]; filed as inverse agonist): 2.3
- Ki (Cannabinoid receptor 2 [4]): 320 nM
- Emax (Cannabinoid receptor 1 [5]): inactive
- Ratio (Cannabinoid receptor 1 [10]): inactive
- pEC50 (Cannabinoid receptor 1 [7]): inactive
- EC50 (Cannabinoid receptor 2 [6]): 1660 nM

SMILES: O=C(c1ccccc1)c1cc(O)c(-c2ccc3c(c2)OCO3)c(O)c1
- pEC50 (Cannabinoid receptor 1 [1]): inactive
- Emax (Cannabinoid receptor 2 [2]): inactive
- Ki (Cannabinoid receptor 1 [3]): > 10000 nM
- Ki (Cannabinoid receptor 2 [4]): > 10000 nM
- Emax (Cannabinoid receptor 1 [5]): inactive
- Emax (Cannabinoid receptor 2 [6]; time hrs <=1): inactive

SMILES: O=C(c1ccccc1)c1cc(O)c(-c2cccc(C(F)(F)F)c2)c(O)c1
- pEC50 (Cannabinoid receptor 1 [1]): inactive
- Ratio Ki (Homo sapiens): > 49
- EC50 (Cannabinoid receptor 2 [8]): 3470 nM
- Emax (Cannabinoid receptor 2 [2]; filed as inverse agonist): 66%
- Ki (Cannabinoid receptor 1 [3]): > 10000 nM
- Ratio (Cannabinoid receptor 2 [9]; filed as inverse agonist): 1.41
- Ki (Cannabinoid receptor 2 [4]): 204 nM
- Emax (Cannabinoid receptor 1 [5]): inactive
- Ratio (Cannabinoid receptor 1 [10]): inactive
- pEC50 (Cannabinoid receptor 1 [7]): inactive
- EC50 (Cannabinoid receptor 2 [6]): 240 nM

SMILES: Cc1cccc(-c2c(O)cc(C(=O)c3cccs3)cc2O)c1
- pEC50 (Cannabinoid receptor 1 [1]): inactive
- Ratio Ki (Homo sapiens): 9.77
- EC50 (Cannabinoid receptor 2 [8]): 6170 nM
- Emax (Cannabinoid receptor 2 [2]; filed as inverse agonist): 51.7%
- Ki (Cannabinoid receptor 1 [3]): 9530 nM
- Ratio (Cannabinoid receptor 2 [9]; filed as inverse agonist): 2.68
- Ki (Cannabinoid receptor 2 [4]): 975 nM
- Emax (Cannabinoid receptor 1 [5]): inactive
- Ratio (Cannabinoid receptor 1 [10]): inactive
- pEC50 (Cannabinoid receptor 1 [7]): inactive
- EC50 (Cannabinoid receptor 2 [6]): 200 nM

SMILES: O=C(c1ccccc1)c1cc(O)c(-c2ccnc(Cl)c2)c(O)c1
- pEC50 (Cannabinoid receptor 1 [1]): inactive
- Emax (Cannabinoid receptor 2 [2]): inactive
- Ki (Cannabinoid receptor 1 [3]): > 10000 nM
- Ki (Cannabinoid receptor 2 [4]): > 10000 nM
- Emax (Cannabinoid receptor 1 [5]): inactive
- pEC50 (Cannabinoid receptor 2 [6]; time hrs <=1): inactive

SMILES: O=C(c1ccccc1)c1cc(O)c(-c2ccsc2)c(O)c1
- pEC50 (Cannabinoid receptor 1 [1]): inactive
- Emax (Cannabinoid receptor 2 [2]): inactive
- Ki (Cannabinoid receptor 1 [3]): > 10000 nM
- Ki (Cannabinoid receptor 2 [4]): > 10000 nM
- Emax (Cannabinoid receptor 1 [5]): inactive
- pEC50 (Cannabinoid receptor 2 [6]; time hrs <=1): inactive

SMILES: O=C(c1ccccc1)c1cc(O)c(-c2cc(Cl)cc(Cl)c2)c(O)c1
- pEC50 (Cannabinoid receptor 1 [1]): inactive
- Ratio Ki (Homo sapiens): 39.4
- Emax (Cannabinoid receptor 2 [2]; filed as inverse agonist): 54.8%
- Ratio (Cannabinoid receptor 2 [9]; filed as inverse agonist): 0.66
- Emax (Cannabinoid receptor 1 [5]): inactive
- Ratio (Cannabinoid receptor 1 [10]): inactive
- pEC50 (Cannabinoid receptor 1 [7]): inactive

SMILES: O=C(c1cc(O)c(-c2cc(Cl)ccc2Cl)c(O)c1)c1cccs1
- pEC50 (Cannabinoid receptor 1 [1]): inactive
- Ratio Ki (Homo sapiens): > 22.4
- EC50 (Cannabinoid receptor 2 [8]): > 10000 nM
- Emax (Cannabinoid receptor 2 [2]; filed as inverse agonist): 61%
- Ki (Cannabinoid receptor 1 [3]): > 10000 nM
- Ratio (Cannabinoid receptor 2 [9]; filed as inverse agonist): 1.46
- Ki (Cannabinoid receptor 2 [4]): 447 nM
- Emax (Cannabinoid receptor 1 [5]): inactive
- Ratio (Cannabinoid receptor 1 [10]): inactive
- pEC50 (Cannabinoid receptor 1 [7]): inactive
- EC50 (Cannabinoid receptor 2 [6]): 141 nM

SMILES: O=C(c1cc(O)c(-c2cccc(CO)c2)c(O)c1)c1cccs1
- pEC50 (Cannabinoid receptor 1 [1]): inactive
- Ratio Ki (Homo sapiens): > 1.19
- Emax (Cannabinoid receptor 2 [2]): inactive
- Ki (Cannabinoid receptor 1 [3]): > 10000 nM
- Ki (Cannabinoid receptor 2 [4]): 8380 nM
- Emax (Cannabinoid receptor 1 [5]): inactive
- pEC50 (Cannabinoid receptor 2 [6]; time hrs <=1): inactive

SMILES: O=C(c1ccccc1)c1cc(O)c(-c2ccoc2)c(O)c1
- pEC50 (Cannabinoid receptor 1 [1]): inactive
- Ratio Ki (Homo sapiens): > 7.53
- Emax (Cannabinoid receptor 2 [2]): -18.5%
- Ki (Cannabinoid receptor 1 [3]): > 10000 nM
- Ki (Cannabinoid receptor 2 [4]): 1330 nM
- Emax (Cannabinoid receptor 1 [5]): inactive
- EC50 (Cannabinoid receptor 2 [6]): 2750 nM

SMILES: O=C(c1ccccc1)c1cc(O)c(-c2cc(F)cc(F)c2)c(O)c1
- pEC50 (Cannabinoid receptor 1 [1]): inactive
- Ratio Ki (Homo sapiens): 0.66
- EC50 (Cannabinoid receptor 2 [8]): 8910 nM
- Emax (Cannabinoid receptor 2 [2]; filed as inverse agonist): 63%
- Ki (Cannabinoid receptor 1 [3]): 1080 nM
- Ratio (Cannabinoid receptor 2 [9]; filed as inverse agonist): 2.22
- Ki (Cannabinoid receptor 2 [4]): 1630 nM
- Emax (Cannabinoid receptor 1 [5]): inactive
- Ratio (Cannabinoid receptor 1 [10]): inactive
- pEC50 (Cannabinoid receptor 1 [7]): inactive
- EC50 (Cannabinoid receptor 2 [6]): 1700 nM

— ChEMBL document CHEMBL4715916, “Synthesis and biological evaluation of a ring analogs of the selective CB2 inverse agonist SMM-189” (Bioorg Med Chem, 2021)
